One test deals with HepG2. The test can be described thus: Hepatoprotective activity against APAP-induced cell injury in human HepG2 cells assessed as survival rate at 10 uM after 48 hrs by MTT assay relative to control. The test is classed as functional. As to conditions: HepG2, 48 h, read-out: Survival. For orientation: Tetrazolium dyes change colour on reduction, which living cells bring about.

For the next test, the system named is BV-2. As to the kind of experiment: Antiinflammatory activity in mouse BV2 cells assessed as inhibition of LPS-induced nitric oxide production after 24 hrs by Griess assay. The test is classed as functional, cell-based. The conditions noted are these: BV-2, 24 h. (In general: Nitrite, measured by Griess reagent, commonly stands in for NO production.)

Turning to `CC1=CC(=O)C=C(CO)[C@@]12CC[C@@H](C(C)(C)O[C@@H]1O[C@H](CO[C@@H]3OC[C@](O)(CO)[C@H]3O)[C@@H](O)[C@H](O)[C@H]1O)C2`, in the test on HepG2, the viability at 10 µM is 58.2%.
Still for that read-out and setting: next, `COC(=O)c1cc(OC)c2c(c1-c1c(CO)cc(OC)c3c1OCO3)OCO2` [BICYCLOL]: 52.9%.
Regarding `COc1cc(/C=C/C(=O)CC(=O)/C=C/c2ccc(O)c(OC)c2)ccc1O` [CURCUMIN], in the test on BV-2, the half-inhibitory concentration (IC50) stood at 4.77 µM.
Same read-out and setting: the value for `CC1=CC(=O)C=C(CO)[C@@]12CC[C@@H](C(C)(C)O[C@@H]1O[C@H](CO)[C@@H](O)[C@H](O)[C@H]1O)C2` was 11.4 µM.

In general, IC50 refers to the point on the concentration scale where inhibition reaches its midpoint.

Source of the values: ChEMBL document CHEMBL4000153, “Bioactive Sesquiterpenoid and Polyacetylene Glycosides from Atractylodes lancea” (J Nat Prod, 2016).
